Tests used:
Format in all cases: cell-based, human
[1] = test system: breast cancer (MCF-7) cell line; assay: MTT cytotoxicity assay, MCF-7; settings: ± SD, 1.56-200 µM
Experimental: (§1) DMSO solutions (10^−3 M) of the complexes (1–4) were subjected to molar conductance measurements at room temperature over 48 h, and the observed values are presented in Table S8. […] A comparative cytotoxicity assay explored the differences between nickel(II) complexes derived from thiosemicarbazone and dithiocarbazate ligands. Additionally, we investigated the influence of the coligands triphenylphosphine and pyridine in the complexes. The effectiveness of the compounds in inhibiting cell viability was concentration- and time-dependent. The analysis involved varying concentrations between 1.56 and 200 µM over 48 h using an MTT assay, with untreated cells serving as the control. Table 5 presents the IC50 values for the free ligands, synthesized complexes, and cisplatin, which served as reference compounds in this study.
(§2) The cytotoxic activity of the synthesized compounds was evaluated against human cell lines, including breast cancer (MCF–7), cisplatin-resistant ovarian cancer (A2780cis), lung cancer (A549), and nontumor lung cells (MRC–5). The A549 and MRC-5 cell lines were cultured in Dulbecco’s Modified Eagle’s Medium (DMEM), while the MCF-7 and A2780cis cell lines were cultured in Roswell Park Memorial Institute (RPMI–1640). Both cultures were supplemented with 10% fetal bovine serum (FBS), penicillin (100 IU/mL), streptomycin ([…]), and L-glutamine (2 mM). The cells were grown as monolayers in disposable 25 cm^2 flasks and incubated at 37 °C in a humidified atmosphere containing 5% CO2.
(§3) The cytotoxicity activity of the compounds was assessed using a colorimetric MTT (3-(4,5-dimethylthiazol-2-yl)-2,5-diphenyltetrazolium bromide) assay. The cells were trypsinized, counted, and adjusted to the appropriate concentration and were seeded into 96-well plates at a density of 1.5 × 10^4 cells/well. […] The absorbance was measured at 570 nm using a Varioskan LUX Multimode Microplate Reader (VL000D0, Waltham, MA 02451, USA). […] The half-maximal inhibitory concentration (IC50) values were determined from dose–response curves using GraphPad Prism version 8 software.

[2] = test system: lung cancer (A549) cell line; assay: MTT cytotoxicity assay, A549; settings: ± SD, 1.56-200 µM
Experimental: as §1, §2, §3

[3] = test system: nontumoral lung (MRC-5) cell line; assay: MTT cytotoxicity assay, MRC-5; settings: ± SD, 1.56-200 µM, nontumoral cells
Experimental: as §1, §2, §3

[4] = test system: cisplatin-resistant ovarian cancer (A2780cis) cell line; assay: MTT cytotoxicity assay, A2780cis; settings: 48 h, ± SD, 1.56-200 µM
Experimental: as §1, §2, §3

O=C(C/C(=N/NC(=S)SCc1ccccc1)C(F)(F)F)c1cccs1 [H2L^2, thenoyltrifluoroacetone–S–benzyldithiocarbazate]
IC50 ([1]; Homo sapiens, MCF7, 48 h): > 100 µM
IC50 ([2]; Homo sapiens, A549, 48 h): > 100 µM
IC50 ([3]; Homo sapiens, MRC5, 48 h): > 100 µM
IC50 ([4]; Homo sapiens, A2780cis): 78.9 µM

N.N.[Cl][Pt][Cl] [Cisplatin, cisplatin, reference compound]
IC50 ([1]; 48 h): 14 µM
IC50 ([2]; 48 h): 11.5 µM
IC50 ([3]; 48 h): 29.1 µM
IC50 [4]: 37 µM

O=C(C/C(=N/NC(=S)Nc1ccccc1)C(F)(F)F)c1cccs1 [H2L^1, thenoyltrifluoroacetone–4–phenyl–3–thiosemicarbazone]
IC50 ([1]; Homo sapiens, MCF7, 48 h): > 100 µM
IC50 ([2]; Homo sapiens, A549, 48 h): 51.4 µM
IC50 ([3]; Homo sapiens, MRC5, 48 h): > 100 µM
IC50 ([4]; Homo sapiens, A2780cis): 42.8 µM

Source: publication PMC12430362, “Comparative Study of Ni(II) Complexes with Dithiocarbazate- and Thiosemicarbazone-Based Ligands: Synthesis, Crystal Structures, and Anticancer Activity” (Molecules, 2025)
